Laboratory results reported in patent US20240116962A1, “PYRIDINE-2-AMINE DERIVATIVE AND PHARMACEUTICAL COMPOSITION AND USE THEREOF” (TSINGHUA UNIVERSITY, priority 2020, published 2024).
Like-named read-outs stand apart in the source and are kept apart here.

Columns and labels:
hTLR7 = target: T1, hTLR7 (Homo sapiens, UniProt Q9NYK1); experiment: EC50 assay for small molecule agonists, HEK-Blue hTLR7 cells, SEAP readout; format: cell-based; conditions: agonist activity, nd = EC50 larger than 25 μM
T1 construct: host or cells: HEK-Blue hTLR7 (HEK293-derived reporter cells with SEAP read-out)
T1 sequence (Q9NYK1 27-1049): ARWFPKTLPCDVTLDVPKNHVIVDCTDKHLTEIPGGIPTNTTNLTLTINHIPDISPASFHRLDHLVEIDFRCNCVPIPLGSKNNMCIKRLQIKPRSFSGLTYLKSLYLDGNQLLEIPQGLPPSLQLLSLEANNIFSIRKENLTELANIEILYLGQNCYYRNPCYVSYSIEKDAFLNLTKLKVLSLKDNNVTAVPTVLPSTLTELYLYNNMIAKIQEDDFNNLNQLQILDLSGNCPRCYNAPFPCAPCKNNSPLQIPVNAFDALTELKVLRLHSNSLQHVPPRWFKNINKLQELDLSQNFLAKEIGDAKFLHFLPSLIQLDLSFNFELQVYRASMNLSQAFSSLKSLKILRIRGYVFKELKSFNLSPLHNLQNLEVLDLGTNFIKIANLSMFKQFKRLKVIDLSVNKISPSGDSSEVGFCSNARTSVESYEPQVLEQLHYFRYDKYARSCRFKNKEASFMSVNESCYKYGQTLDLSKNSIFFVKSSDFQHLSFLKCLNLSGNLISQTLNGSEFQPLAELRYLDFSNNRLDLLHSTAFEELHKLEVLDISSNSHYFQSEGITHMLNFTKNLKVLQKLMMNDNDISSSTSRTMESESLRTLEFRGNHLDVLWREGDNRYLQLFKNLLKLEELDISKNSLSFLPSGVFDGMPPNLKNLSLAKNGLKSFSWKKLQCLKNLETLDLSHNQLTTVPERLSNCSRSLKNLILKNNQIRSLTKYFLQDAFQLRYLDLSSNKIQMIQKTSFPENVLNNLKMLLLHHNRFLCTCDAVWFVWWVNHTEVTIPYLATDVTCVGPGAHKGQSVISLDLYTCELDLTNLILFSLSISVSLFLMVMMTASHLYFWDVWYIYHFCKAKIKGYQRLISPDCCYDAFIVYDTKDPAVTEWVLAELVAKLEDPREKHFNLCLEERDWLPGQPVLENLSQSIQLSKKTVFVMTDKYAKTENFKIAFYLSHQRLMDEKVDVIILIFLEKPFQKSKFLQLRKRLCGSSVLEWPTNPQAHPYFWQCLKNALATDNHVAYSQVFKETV
Procedure: (§1) Reagents used for cell culture and detection for HEK-Blue™ hTLR7, HEK-Blue™ hTLR8 and control HEK-Blue Nu112k were as follows: DMEM (4.5 g/L glucose), bovine serum FBS, streptomycin ([…]), penicillin (50 U/mL), Blasticidin (10 mg/mL), Zeocin™ (10 mg/mL), Normocin (50 mg/mL), and HEK-Blue™ Detection. Basal medium was as follows: DMEM +10% FBS+streptomycin+penicillin+Normocin ([…]); selective medium for resistance genes was as follows: DMEM+10% FBS+streptomycin+penicillin+Normocin (1001 μg/mL)+Blasticidin (1001 μg/mL)+Zeocin™ (1001 μg/mL).
(§2) Cell preparation: HEK-Blue™ hTLR7 and HEK-Blue™ hTLR8 cell lines were purchased from Invivogen. The cells frozen in liquid nitrogen were taken, quickly placed in a water bath at 37° C., shaken occasionally, and completely melted within 1 min. The cells were transferred to 15 mL of pre-heated basal medium and resuspended; centrifuged at 1,000 r/min for 5 min, supernatant discarded; resuspended with 1 mL of basal medium, transferred to a T25 culture flask, supplemented to 5 mL with the medium, and incubated in an incubator at 37° C.; after stable passage twice, and subjected to selective antibiotic screening: HEK-Blue™ hTLR7 or HEK-Blue™ hTLR8: 100 μg/mL Zeocin+Blasticidin (30 μg/mL), HEK-Blue Nu112-k: 100 μg/mL Zeocin. The fluid was changed 3 times a week. When the number of cells reached 70%-80%, PBS was added, and the cells were exfoliated by gently pipetting.
(§3) Activity assay steps: (1) adding a test sample to a 96-well plate at 20 μL/well (triplicate wells were set); (2) adding 20 μL of positive control (e.g., R848), and adding 20 μL of negative control (e.g., ddH2O); (3) removing a T75 culture flask from the incubator, discarding the medium, adding 5-10 mL of pre-heated PBS, and gently pipetting the cells; adding 2-5 mL of PBS to the culture flask, incubating the culture flask in the incubator for 1-2 min, and then gently pipetting the cells to make them exfoliated; (4) mixing the mixture well, and counting the cells, without centrifugation; resuspending the cells with HEK-Blue™ assay solution and adjusting the cell number, taking care not to incubate for a long time to avoid too deep background or false positive. HEK-Blue hTLR cell number was about 2.2×10^5/mL, 180 μL/well (about 40000 cells), and HEK-Blue Nu112-k cell number was about 2.8×10^5/mL, 180 μL/well (about 50000 cells). (5) incubating the cells in the incubator at 37° C. for 6-16 h, and detecting at 620-655 nm for SEAP readings.
(§4) Effect %=(mean OD of the administration group−mean OD of the H2O group at each concentration)/(mean ODmax of the positive drug group−mean OD of the H2O group)×100. EC50 was calculated by fitting Lg [concentration]-effect curves using GraphPad Prism5 software.
(§5) Experimental results: the concentration for 50% of maximal effect (EC50) refers to a corresponding concentration of small molecules that can cause 50% of the maximal agonistic effect. […] EC50 represents a potency for agonizing the TLR8 receptor, with smaller values indicating better efficacy. […] In the following table, the unit of the agonist activity is nanomole, unless otherwise specified.

hTLR8 = target: T2, hTLR8 (Homo sapiens, UniProt Q9NR97); experiment: EC50 assay for small molecule agonists, HEK-Blue hTLR8 cells, SEAP readout; format: cell-based
T2 construct: host or cells: HEK-Blue hTLR8 (HEK293-derived reporter cells with SEAP read-out)
T2 sequence (Q9NR97 27-1041): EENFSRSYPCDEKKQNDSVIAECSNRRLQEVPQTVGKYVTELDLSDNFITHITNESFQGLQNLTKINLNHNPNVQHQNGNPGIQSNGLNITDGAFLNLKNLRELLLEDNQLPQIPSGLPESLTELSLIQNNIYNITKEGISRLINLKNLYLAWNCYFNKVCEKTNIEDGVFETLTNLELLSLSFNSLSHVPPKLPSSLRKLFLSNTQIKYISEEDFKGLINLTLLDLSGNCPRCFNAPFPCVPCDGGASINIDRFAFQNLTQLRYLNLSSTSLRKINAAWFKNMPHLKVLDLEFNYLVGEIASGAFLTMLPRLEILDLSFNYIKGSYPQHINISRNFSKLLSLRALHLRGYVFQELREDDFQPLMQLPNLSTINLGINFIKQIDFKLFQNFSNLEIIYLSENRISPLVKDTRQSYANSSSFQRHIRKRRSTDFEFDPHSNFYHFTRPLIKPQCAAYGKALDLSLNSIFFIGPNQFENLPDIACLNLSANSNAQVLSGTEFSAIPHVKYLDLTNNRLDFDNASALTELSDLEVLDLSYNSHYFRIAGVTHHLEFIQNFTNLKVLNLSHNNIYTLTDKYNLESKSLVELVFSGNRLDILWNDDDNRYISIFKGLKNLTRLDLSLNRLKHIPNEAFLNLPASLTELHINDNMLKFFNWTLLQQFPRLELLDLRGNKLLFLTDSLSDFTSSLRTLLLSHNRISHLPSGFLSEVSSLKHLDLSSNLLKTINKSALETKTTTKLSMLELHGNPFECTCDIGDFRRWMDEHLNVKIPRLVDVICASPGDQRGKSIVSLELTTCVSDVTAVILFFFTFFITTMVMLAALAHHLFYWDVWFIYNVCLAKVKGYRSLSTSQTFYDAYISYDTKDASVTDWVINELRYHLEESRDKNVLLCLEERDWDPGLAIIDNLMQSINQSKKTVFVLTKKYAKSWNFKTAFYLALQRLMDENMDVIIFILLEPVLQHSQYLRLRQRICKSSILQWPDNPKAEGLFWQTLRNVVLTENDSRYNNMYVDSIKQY
Procedure: as §1, §2, §3, §4, §5

[1] = agonist activity, read-out: hTLR8(EC50)

Row | Structure (SMILES) | EC50 (hTLR7) | EC50 (hTLR8; [1]) | EC50 (hTLR8; read-out: concentration for 50% of maximal effect (EC50) hTLR8)
1 | CCCCCc1cc2nc(Cc3ccc(CN(C)C)cc3)ccc2nc1N [Compound N1] | > 25000 nM | 398 nM | –
2 | CCCCCc1cc2nc(Cc3ccc(CN4CCCC4)cc3)ccc2nc1N [Compound N2] | > 25000 nM | 480 nM | –
3 | CCCCCc1cc2nc(Cc3ccc(CN4CCOCC4)cc3)ccc2nc1N [Compound N3] | > 25000 nM | 1580 nM | –
4 | CCCCCc1cc(Cc2ccc(CN(C)C)cc2)c(C)nc1N [Compound N4] | > 25000 nM | 58 nM | –
5 | CCCCCc1cc(Cc2ccc(CN)cc2)c(C)nc1N [Compound N5] | > 25000 nM | 122 nM | –
6 | CCCCCc1cc(Cc2ccc(CNC)cc2)c(C)nc1N [Compound N6] | > 25000 nM | 84 nM | –
7 | CCCCCc1cc(Cc2ccc(CN3CCCC3)cc2)c(C)nc1N [Compound N7] | > 25000 nM | 63 nM | –
8 | CCCCCc1cc(Cc2ccc(CN3CCOCC3)cc2)c(C)nc1N [Compound N8] | > 25000 nM | 428 nM | –
9 | CCCCCc1cc(Cc2ccc(CN3CCCCC3)cc2)c(C)nc1N [Compound N9] | > 25000 nM | 54 nM | 40 nM
10 | CCCCCc1cc(Cc2ccc(CN3CCNCC3)cc2)c(C)nc1N [Compound N10] | > 25000 nM | 134 nM | –
11 | CCCCCc1cc(Cc2ccc(CN3CCN(C)CC3)cc2)c(C)nc1N [Compound N11] | > 25000 nM | 151 nM | –
12 | CCCCCc1cc(Cc2ccc(CN3CCCCCC3)cc2)c(C)nc1N [Compound N12] | > 25000 nM | 109 nM | –
13 | CCCCCc1cc(Cc2ccc(CN(C)CC(=O)OC)cc2)c(C)nc1N [Compound N13] | > 25000 nM | 3000 nM | –
14 | CCCCCc1cc(Cc2ccc(CN(C)CC(=O)O)cc2)c(C)nc1N [Compound N14] | > 25000 nM | > 4000 nM | –
15 | CCCCCc1cc(Cc2ccc(CN(C)CCC(=O)OC)cc2)c(C)nc1N [Compound N15] | > 25000 nM | 628 nM | –
16 | CCCCCc1cc(Cc2ccc(CN(C)CCC(=O)O)cc2)c(C)nc1N [Compound N16] | > 25000 nM | > 4000 nM | –
17 | CCCCCc1cc(Cc2ccc(CN3CCC3)cc2)c(C)nc1N [Compound N17] | > 25000 nM | 121 nM | –
18 | CCCCCc1cc(Cc2ccc(CN3CC[C@H](O)C3)cc2)c(C)nc1N [Compound N18] | > 25000 nM | 124 nM | –

Row | Structure (SMILES) | EC50 (hTLR7) | EC50 (hTLR8; [1]) | EC50 (hTLR8; read-out: concentration for 50% of maximal effect (EC50) hTLR8)
19 | CCCCCc1cc(Cc2ccc(CN3CC[C@@H](O)C3)cc2)c(C)nc1N [Compound N19] | > 25000 nM | 104 nM | –
20 | CCCCCc1cc(Cc2ccc(CNC3CC3)cc2)c(C)nc1N [Compound N20] | > 25000 nM | 130 nM | –
21 | CCCCCc1cc(Cc2ccc(CN3CC(O)C3)cc2)c(C)nc1N [Compound N21] | > 25000 nM | 117 nM | –
22 | CCCCCc1cc(Cc2ccc(CN3CC4(COC4)C3)cc2)c(C)nc1N [Compound N22] | > 25000 nM | 81 nM | –
23 | CCCCCc1cc(Cc2ccc(CN(C)C)cc2F)c(C)nc1N [Compound N23] | > 25000 nM | 80 nM | –
24 | CCCCCc1cc(Cc2ccc(CN3CC4(COC4)C3)cc2F)c(C)nc1N [Compound N24] | > 25000 nM | 113 nM | –
25 | CCCCCc1cc(Cc2ccc(CN(C)CCOCCOCCC(F)(F)P(=O)(OCC)OCC)cc2)c(C)nc1N [Compound N25] | > 25000 nM | > 4000 nM | –
26 | CCCCCc1cc(Cc2ccc(CN(C)CCOCCOCCC(F)(F)P(=O)(O)O)cc2)c(C)nc1N [Compound N26] | > 25000 nM | > 4000 nM | –
27 | CCCCCc1cc(Cc2ccc(COC)cc2)c(C)nc1N [Compound N27] | > 25000 nM | > 4000 nM | –
28 | COCCCc1cc(Cc2ccc(CN(C)C)cc2)c(C)nc1N [Compound N28] | > 25000 nM | > 4000 nM | –
29 | COCCCc1cc(Cc2ccc(CN3CCCC3)cc2)c(C)nc1N [Compound N29] | > 25000 nM | > 4000 nM | –
30 | COCCCc1cc(Cc2ccc(CN3CCN(C)CC3)cc2)c(C)nc1N [Compound N30] | > 25000 nM | > 4000 nM | –
31 | CCCCCc1cc(Cc2ccc(CN(C)C)cc2)cnc1N [Compound N31] | > 25000 nM | 248 nM | –
32 | CCCCCc1cc(Cc2cccc(CN(C)C)c2)c(C)nc1N [Compound N32] | > 25000 nM | 290 nM | –
33 | CCCCCc1cc(Cc2ccccc2CO)c(C)nc1N [Compound N33] | > 25000 nM | > 4000 nM | –
34 | CCCCCc1cc(Cc2ccccc2CN(C)C)c(C)nc1N [Compound N34] | > 25000 nM | > 4000 nM | –
35 | CCCCCc1cc(Cc2ccccc2CN2CCCC2)c(C)nc1N [Compound N35] | > 25000 nM | > 4000 nM | –
